Results taken from ChEMBL document CHEMBL5550158, “Novel 4-triazole phenyl amide (4-TPA) molecules: Potent promoters of α-synuclein fibril disassembly” (Eur J Med Chem, 2024).
Calls of active or inactive are those of the source. The rule behind the calls is not given here.

Experiments:
[1] = Half life in ICR mouse at 10 mg/kg, ip measured upto 7 hrs by HPLC analysis; format: ADME, organism-based; conditions: in vivo
SH-SY5Y [2] = experiment: Neuroprotective activity against PFF-induced human SH-SY5Y cells assessed as decrease in autophagosome level measured for 6 hrs by MDC fluorescence assay; format: functional, cell-based
[3] = AUC (0 to infinity) in ICR mouse at 10 mg/kg, iv measured upto 7 hrs by HPLC analysis; format: ADME, organism-based; conditions: in vivo
[4] = Drug concentration in ICR mouse brain at 10 mg/kg, iv by LC-MS/MS analysis; format: ADME, organism-based; conditions: in vivo
[5] = Bioavailability in ICR mouse at 10 mg/kg, ip or 10 mg/kg, iv measured upto 7 hrs by HPLC analysis; format: ADME, organism-based; conditions: in vivo
[6] = AUC (0 to infinity) in ICR mouse at 10 mg/kg, ip measured upto 7 hrs by HPLC analysis; format: ADME, organism-based; conditions: in vivo
SH-SY5Y [7] = experiment: Induction of ROS level in PFF-induced human SH-SY5Y cells measured for 12 hrs by DCFH-DA staining based analysis; format: functional, cell-based
SH-SY5Y [8] = experiment: Cytotoxicity against PFF-induced human SH-SY5Y cells assessed as increase in LDH release incubated for 24 hrs by fluorescence based analysis; format: functional
[9] = Ratio of drug concentration in ICR mouse brain to plasma at 10 mg/kg, iv by LC-MS/MS analysis; format: ADME, organism-based; conditions: read-out: BPR
[10] = Drug concentration in ICR mouse plasma at 10 mg/kg, iv by LC-MS/MS analysis; format: ADME, organism-based; conditions: in vivo
SH-SY5Y [11] = experiment: Neuroprotective activity against PFF-induced human SH-SY5Y cells assessed as diffusion of Cy5-PFF and lysosome into cytoplasm measured for 12 hrs by olympus confocal microscopic analysis; format: functional, cell-based
[12] = Clearance in ICR mouse plasma at 10 mg/kg, ip measured upto 7 hrs by HPLC analysis; format: ADME, organism-based; conditions: in vivo
[13] = Half life in ICR mouse at 10 mg/kg, iv measured upto 7 hrs by HPLC analysis; format: ADME, organism-based; conditions: in vivo
[14] = Tmax in ICR mouse at 10 mg/kg, ip measured upto 7 hrs by HPLC analysis; format: ADME, organism-based; conditions: in vivo
[15] = Clearance in ICR mouse plasma at 10 mg/kg, iv measured upto 7 hrs by HPLC analysis; format: ADME, organism-based

| half-life [1] | AUC(0-inf) [3] | Ct [4] | bioavailability [5] | AUC [6] | Kp [9] | Cp [10] | CL [12] | half-life [13] | Tmax [14] | clearance [15] | SMILES | Activity (SH-SY5Y [2]) | Activity (SH-SY5Y [7]) | Activity (SH-SY5Y [8]) | Activity (SH-SY5Y [11]) |
| --- | --- | --- | --- | --- | --- | --- | --- | --- | --- | --- | --- | --- | --- | --- | --- |
| 69 min | 41300 ng·h/mL | 1.76 µg/mL | 72.4% | 1793.287 mg·min/L | 0.1 | 17180 ng/mL | 2 mL/min/kg | 48 min | 30 min | 4 mL/min/kg | COc1cc([N+](=O)[O-])ccc1-n1cc(-c2ccc(NC(=O)c3ccc(NC(C)=O)cc3)cc2)nn1 | Active | inactive | ~30% | Active |
|  |  |  |  |  |  |  |  |  |  |  | COc1ccc(-n2cc(-c3ccc(NC(=O)c4cc(Br)cc(OC)c4)cc3)nn2)cc1 | inactive |  | ~30% |  |
